Measurements as given in patent US20240300932A1, “N-PHENYLIMINE DERIVATIVE AND PREPARATION METHOD AND USE THEREOF” (Guizhou University, priority 2023, published 2024).

Legend:
[1] = tested on: Abutilon theophrasti; experiment: Post-emergence herbicidal activity test (stem and leaf spray, pot culture); assay type: in vivo; details: 3 weeks after spraying
Outline: (§1)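 Graded 0–5 on fresh-weight growth control rate 3 weeks after a single spray-tower application at 10, 5 or 2.5 g/mu. Compounds in acetone with Tween 80 and methyl oleate synergist (1.5 liters/ha), applied to greenhouse weeds at 2- to 3-leaf stage.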

[2] = tested on: Amaranthus retroflexus; experiment: as above; assay type: in vivo; details: 3 weeks after spraying
Outline: as §1

[3] = tested on: Echinochloa crusgalli; experiment: as above; assay type: in vivo; details: 3 weeks after spraying
Outline: as §1

[4] = tested on: Portulaca oleracea; experiment: as above; assay type: in vivo; details: 3 weeks after spraying
Outline: as §1

[5] = tested on: Setaria viridis; experiment: as above; assay type: in vivo; details: 3 weeks after spraying
Outline: as §1

[6] = tested on: Trifoliumre pensL.; experiment: Post-emergence herbicidal activity test (stem and leaf spray, pot culture); assay type: in vivo; details: 3 weeks after spraying
Outline: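 Rates of 10, 5 and 2.5 g/mu were applied in a single spray-tower treatment to 2–3-leaf plants, thinned to 10 per pot. Formulation: acetone solution, Tween 80, 1.5 L/ha methyl oleate synergist. Weed response assessed after 3 further greenhouse weeks; mean of three experiments.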

SMILES	melting point [°C]	Post-emergence herbicidal activity, A. theophrasti (grade) ([1]; dosage 2.5 g/mu)	Post-emergence herbicidal activity, A. theophrasti (grade) ([1]; dosage 5 g/mu)	Post-emergence herbicidal activity, A. theophrasti (grade) ([1]; dosage 10 g/mu)	Post-emergence herbicidal activity, A. retroflexus (grade) ([2]; dosage 2.5 g/mu)	Post-emergence herbicidal activity, A. retroflexus (grade) ([2]; dosage 5 g/mu)	Post-emergence herbicidal activity, A. retroflexus (grade) ([2]; dosage 10 g/mu)	Post-emergence herbicidal activity, E. crusgalli (grade) ([3]; dosage 2.5 g/mu)	Post-emergence herbicidal activity, E. crusgalli (grade) ([3]; dosage 5 g/mu)	Post-emergence herbicidal activity, E. crusgalli (grade) ([3]; dosage 10 g/mu)	Post-emergence herbicidal activity, P. oleracea (grade) ([4]; dosage 2.5 g/mu)	Post-emergence herbicidal activity, P. oleracea (grade) ([4]; dosage 5 g/mu)	Post-emergence herbicidal activity, P. oleracea (grade) ([4]; dosage 10 g/mu)	Post-emergence herbicidal activity, S. viridis (grade) ([5]; dosage 2.5 g/mu)	Post-emergence herbicidal activity, S. viridis (grade) ([5]; dosage 5 g/mu)	Post-emergence herbicidal activity, S. viridis (grade) ([5]; dosage 10 g/mu)	Post-emergence herbicidal activity, Trifoliumre pensL. (grade) ([6]; dosage 2.5 g/mu)	Post-emergence herbicidal activity, Trifoliumre pensL. (grade) ([6]; dosage 5 g/mu)	Post-emergence herbicidal activity, Trifoliumre pensL. (grade) ([6]; dosage 10 g/mu)
O=C(COc1cc(N2C(=O)C3=C(CCCC3)C2=O)c(F)cc1Cl)c1ccc(Br)cc1 [Compound C14, 2-(4-chloro-2-fluoro-5-(2-oxo-2-(4-bromophenyl)ethoxy)phenyl)-4,5,6,7-tetrahydro-1H-isoindole-1,3(2H)-dione]	183 to 185	5 (Grade 5: the growth control rate is greater than or equal to 85%)	5 (Grade 5: the growth control rate is greater than or equal to 85%)	5 (Grade 5: the growth control rate is greater than or equal to 85%)	5 (Grade 5: the growth control rate is greater than or equal to 85%)	5 (Grade 5: the growth control rate is greater than or equal to 85%)	5 (Grade 5: the growth control rate is greater than or equal to 85%)	1 (Grade 1: the growth control rate is greater than or equal to 5% and less than 20%)	2 (Grade 2: the growth control rate is greater than or equal to 20% and less than 40%)	3 (Grade 3: the growth control rate is greater than or equal to 40% and less than 60%)	5 (Grade 5: the growth control rate is greater than or equal to 85%)	5 (Grade 5: the growth control rate is greater than or equal to 85%)	5 (Grade 5: the growth control rate is greater than or equal to 85%)	2 (Grade 2: the growth control rate is greater than or equal to 20% and less than 40%)	3 (Grade 3: the growth control rate is greater than or equal to 40% and less than 60%)	4 (Grade 4: the growth control rate is greater than or equal to 60% and less than 85%)	5 (Grade 5: the growth control rate is greater than or equal to 85%)	5 (Grade 5: the growth control rate is greater than or equal to 85%)	5 (Grade 5: the growth control rate is greater than or equal to 85%)
Cc1ccc(C(=O)COc2ccc(N3C(=O)C4=C(CCCC4)C3=O)c(F)c2)cc1 [Compound C15, 2-(2-fluoro-4-(2-oxo-2-(4-tolyl)ethoxy)phenyl)-4,5,6,7-tetrahydro-1H-isoindole-1,3(2H)-dione]	144 to 146	5 (Grade 5: the growth control rate is greater than or equal to 85%)	5 (Grade 5: the growth control rate is greater than or equal to 85%)	5 (Grade 5: the growth control rate is greater than or equal to 85%)	5 (Grade 5: the growth control rate is greater than or equal to 85%)	5 (Grade 5: the growth control rate is greater than or equal to 85%)	5 (Grade 5: the growth control rate is greater than or equal to 85%)	1 (Grade 1: the growth control rate is greater than or equal to 5% and less than 20%)	2 (Grade 2: the growth control rate is greater than or equal to 20% and less than 40%)	3 (Grade 3: the growth control rate is greater than or equal to 40% and less than 60%)	5 (Grade 5: the growth control rate is greater than or equal to 85%)	5 (Grade 5: the growth control rate is greater than or equal to 85%)	5 (Grade 5: the growth control rate is greater than or equal to 85%)	2 (Grade 2: the growth control rate is greater than or equal to 20% and less than 40%)	3 (Grade 3: the growth control rate is greater than or equal to 40% and less than 60%)	4 (Grade 4: the growth control rate is greater than or equal to 60% and less than 85%)	5 (Grade 5: the growth control rate is greater than or equal to 85%)	5 (Grade 5: the growth control rate is greater than or equal to 85%)	5 (Grade 5: the growth control rate is greater than or equal to 85%)
CC(=O)Nc1cc(N2C(=O)C3=C(CCCC3)C2=O)c(F)cc1Cl [Compound D1, N-(2-chloro-5-(1,3-dioxo-1,3,4,5,6,7-hexahydro-2H-isoindole-2-yl)-4-fluorophenyl)acetamide]	155 to 157	–	–	5 (Grade 5: the growth control rate is greater than or equal to 85%)	–	–	5 (Grade 5: the growth control rate is greater than or equal to 85%)	–	–	3 (Grade 3: the growth control rate is greater than or equal to 40% and less than 60%)	–	–	5 (Grade 5: the growth control rate is greater than or equal to 85%)	–	–	4 (Grade 4: the growth control rate is greater than or equal to 60% and less than 85%)	–	–	5 (Grade 5: the growth control rate is greater than or equal to 85%)
O=C(Nc1cc(N2C(=O)C3=C(CCCC3)C2=O)c(F)cc1Cl)C1CCCCC1 [Compound D10, N-(2-chloro-5-(1,3-dioxo-1,3,4,5,6,7-hexahydro-2H-isoindole-2-yl)-4-fluorophenyl)cyclohexanecarboxamide]	93 to 97	–	–	5 (Grade 5: the growth control rate is greater than or equal to 85%)	–	–	5 (Grade 5: the growth control rate is greater than or equal to 85%)	–	–	3 (Grade 3: the growth control rate is greater than or equal to 40% and less than 60%)	–	–	5 (Grade 5: the growth control rate is greater than or equal to 85%)	–	–	4 (Grade 4: the growth control rate is greater than or equal to 60% and less than 85%)	–	–	5 (Grade 5: the growth control rate is greater than or equal to 85%)

Continued, in another order:

melting point [°C]	SMILES	Post-emergence herbicidal activity, A. theophrasti (grade) ([1]; dosage 2.5 g/mu)	Post-emergence herbicidal activity, A. theophrasti (grade) ([1]; dosage 5 g/mu)	Post-emergence herbicidal activity, A. theophrasti (grade) ([1]; dosage 10 g/mu)	Post-emergence herbicidal activity, A. retroflexus (grade) ([2]; dosage 2.5 g/mu)	Post-emergence herbicidal activity, A. retroflexus (grade) ([2]; dosage 5 g/mu)	Post-emergence herbicidal activity, A. retroflexus (grade) ([2]; dosage 10 g/mu)	Post-emergence herbicidal activity, E. crusgalli (grade) ([3]; dosage 2.5 g/mu)	Post-emergence herbicidal activity, E. crusgalli (grade) ([3]; dosage 5 g/mu)	Post-emergence herbicidal activity, E. crusgalli (grade) ([3]; dosage 10 g/mu)	Post-emergence herbicidal activity, P. oleracea (grade) ([4]; dosage 2.5 g/mu)	Post-emergence herbicidal activity, P. oleracea (grade) ([4]; dosage 5 g/mu)	Post-emergence herbicidal activity, P. oleracea (grade) ([4]; dosage 10 g/mu)	Post-emergence herbicidal activity, S. viridis (grade) ([5]; dosage 2.5 g/mu)	Post-emergence herbicidal activity, S. viridis (grade) ([5]; dosage 5 g/mu)	Post-emergence herbicidal activity, S. viridis (grade) ([5]; dosage 10 g/mu)	Post-emergence herbicidal activity, Trifoliumre pensL. (grade) ([6]; dosage 2.5 g/mu)	Post-emergence herbicidal activity, Trifoliumre pensL. (grade) ([6]; dosage 5 g/mu)	Post-emergence herbicidal activity, Trifoliumre pensL. (grade) ([6]; dosage 10 g/mu)
133 to 138	C/C=C/C(=O)Nc1cc(N2C(=O)C3=C(CCCC3)C2=O)c(F)cc1Cl [Compound D5, (E)-N-(2-chloro-5-(1,3-dioxo-1,3,4,5,6,7-hexahydro-2H-isoindole-2-yl)-4-fluorophenyl)but-2-enamide]	–	–	5 (Grade 5: the growth control rate is greater than or equal to 85%)	–	–	5 (Grade 5: the growth control rate is greater than or equal to 85%)	–	–	3 (Grade 3: the growth control rate is greater than or equal to 40% and less than 60%)	–	–	5 (Grade 5: the growth control rate is greater than or equal to 85%)	–	–	4 (Grade 4: the growth control rate is greater than or equal to 60% and less than 85%)	–	–	5 (Grade 5: the growth control rate is greater than or equal to 85%)
208 to 210	O=C(Nc1cc(N2C(=O)C3=C(CCCC3)C2=O)c(F)cc1Cl)C1CC1 [Compound D8, N-(2-chloro-5-(1,3-dioxo-1,3,4,5,6,7-hexahydro-2H-isoindole-2-yl)-4-fluorophenyl)cyclopropanecarboxamide]	–	–	5 (Grade 5: the growth control rate is greater than or equal to 85%)	–	–	5 (Grade 5: the growth control rate is greater than or equal to 85%)	–	–	3 (Grade 3: the growth control rate is greater than or equal to 40% and less than 60%)	–	–	5 (Grade 5: the growth control rate is greater than or equal to 85%)	–	–	3 (Grade 3: the growth control rate is greater than or equal to 40% and less than 60%)	–	–	5 (Grade 5: the growth control rate is greater than or equal to 85%)
145 to 147	O=C(Nc1cc(N2C(=O)C3=C(CCCC3)C2=O)c(F)cc1Cl)C1CCC1 [Compound D9, N-(2-chloro-5-(1,3-dioxo-1,3,4,5,6,7-hexahydro-2H-isoindole-2-yl)-4-fluorophenyl)cyclobutanecarboxamide]	–	–	5 (Grade 5: the growth control rate is greater than or equal to 85%)	–	–	5 (Grade 5: the growth control rate is greater than or equal to 85%)	–	–	3 (Grade 3: the growth control rate is greater than or equal to 40% and less than 60%)	–	–	5 (Grade 5: the growth control rate is greater than or equal to 85%)	–	–	3 (Grade 3: the growth control rate is greater than or equal to 40% and less than 60%)	–	–	5 (Grade 5: the growth control rate is greater than or equal to 85%)
